Data: ChEMBL document CHEMBL1201862, “PubChem BioAssay data set” (2004)
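Method: 48-hour compound exposure of cells in 96-well plates, five concentrations, linear interpolation of endpoints. The concentration for 50% growth inhibition is given as GI50.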 The source made the active and inactive calls. Rule as the data show it: active = GI50 up to about 1.1 µM and inactive = higher.

What was measured:
Assay in all cases: NCI-60 cell line screen, 48 h
M14 = system: M14
HOP-92 = system: HOP-92
NCI-H460 = system: NCI-H460
MCF7 = system: MCF7
LOX IMVI = system: LOX IMVI
IGROV-1 = system: IGROV-1
SK-OV-3 = system: SK-OV-3
SN12C = system: SN12C
RPMI-8226 = system: RPMI-8226
SF-268 = system: SF-268
SK-MEL-5 = system: SK-MEL-5
A549 = system: A549
COLO 205 = system: COLO 205
NCI-H23 = system: NCI-H23
HT-29 = system: HT-29
OVCAR-8 = system: OVCAR-8
SF-539 = system: SF-539
SNB-75 = system: SNB-75
U-251 = system: U-251
UACC-62 = system: UACC-62
SW-620 = system: SW-620
RXF 393 = system: RXF 393
UACC-257 = system: UACC-257
UO-31 = system: UO-31
MDA-N = system: MDA-N
CCRF-CEM = system: CCRF-CEM
HCT-116 = system: HCT-116
MOLT-4 = system: MOLT-4
NCI/ADR-RES = system: NCI/ADR-RES
SR = system: SR
DU-145 = system: DU-145
OVCAR-4 = system: OVCAR-4
BT-549 = system: BT-549
T47D = system: T47D
EKVX = system: EKVX
PC-3 = system: PC-3
SK-MEL-28 = system: SK-MEL-28
HCC 2998 = system: HCC 2998
MDA-MB-435 = system: MDA-MB-435
SF-295 = system: SF-295
K562 = system: K562
HCT-15 = system: HCT-15
ACHN = system: ACHN
KM12 = system: KM12
HL-60 = system: HL-60
OVCAR-5 = system: OVCAR-5
SK-MEL-2 = system: SK-MEL-2
Hs-578T = system: Hs-578T
OVCAR-3 = system: OVCAR-3
CAKI-1 = system: CAKI-1
SNB-19 = system: SNB-19
NCI-H522 = system: NCI-H522
TK-10 = system: TK-10
MDA-MB-231 = system: MDA-MB-231
786-0 = system: 786-0
A498 = system: A498
HOP-62 = system: HOP-62
Malme-3M = system: Malme-3M
NCI-H226 = system: NCI-H226

Measured: GI50

CCOC(=O)C1(C(F)(F)F)N=C(CC)OC(N2CCOCC2)=N1 (stereo unspecified)
inactive: M14 > 100 µM | HOP-92 > 100 µM | NCI-H460 > 100 µM | MCF7 > 100 µM | LOX IMVI > 100 µM | IGROV-1 > 100 µM | SK-OV-3 > 100 µM | SN12C > 100 µM | RPMI-8226 > 100 µM | SF-268 > 100 µM | SK-MEL-5 > 100 µM | A549 > 100 µM | COLO 205 > 100 µM | NCI-H23 > 100 µM | HT-29 > 100 µM | OVCAR-8 > 100 µM | SF-539 > 100 µM | SNB-75 > 100 µM | U-251 > 100 µM | UACC-62 54.5 µM | SW-620 > 100 µM | RXF 393 > 100 µM | UACC-257 > 100 µM | UO-31 > 100 µM | MDA-N > 100 µM | CCRF-CEM > 100 µM | HCT-116 > 100 µM | MOLT-4 > 100 µM | NCI/ADR-RES > 100 µM | SR > 100 µM | DU-145 > 100 µM | OVCAR-4 > 100 µM | BT-549 > 100 µM | T47D 46.6 µM | EKVX > 100 µM | PC-3 > 100 µM | SK-MEL-28 > 100 µM | HCC 2998 > 100 µM | MDA-MB-435 > 100 µM | SF-295 > 100 µM | K562 > 100 µM | ACHN > 100 µM | KM12 > 100 µM | HL-60 > 100 µM | OVCAR-5 > 100 µM | SK-MEL-2 > 100 µM | Hs-578T > 100 µM | OVCAR-3 > 100 µM | CAKI-1 > 100 µM | SNB-19 > 100 µM | NCI-H522 > 100 µM | TK-10 > 100 µM | MDA-MB-231 > 100 µM
> 100 µM: HCT-15

CCOC(=O)/C=C(\C(=O)OCC)n1ccc(=O)n(Cc2cnnn2COCCOC(C)=O)c1=O
active: HL-60 0.598 µM
7.67 µM: HCT-15
inactive: M14 15.1 µM | 786-0 3.73 µM | NCI-H460 14.2 µM | MCF7 6.4 µM | LOX IMVI 12.2 µM | IGROV-1 16.8 µM | SK-OV-3 53.7 µM | SN12C 15.4 µM | RPMI-8226 8.15 µM | SF-268 16.5 µM | SK-MEL-5 21.9 µM | A549 21.6 µM | COLO 205 1.77 µM | NCI-H23 17.3 µM | HT-29 14.2 µM | OVCAR-8 12.1 µM | SF-539 2.36 µM | SNB-75 16.4 µM | U-251 16.4 µM | UACC-62 16.1 µM | SW-620 2.16 µM | RXF 393 1.85 µM | UACC-257 16.2 µM | UO-31 16.8 µM | MDA-N 16.8 µM | CCRF-CEM 1.61 µM | HCT-116 9.25 µM | MOLT-4 2.59 µM | NCI/ADR-RES 22.9 µM | DU-145 18.8 µM | OVCAR-4 23.9 µM | BT-549 8.28 µM | T47D 6.11 µM | EKVX 14.5 µM | A498 23 µM | PC-3 14.3 µM | SK-MEL-28 10 µM | HCC 2998 17.9 µM | MDA-MB-435 8.59 µM | HOP-62 18.9 µM | SF-295 28.7 µM | Malme-3M 2.04 µM | K562 3.48 µM | ACHN 3.79 µM | KM12 16.1 µM | NCI-H226 16.8 µM | OVCAR-5 15.6 µM | SK-MEL-2 18.4 µM | Hs-578T 20.5 µM | OVCAR-3 11 µM | CAKI-1 2.97 µM | SNB-19 > 46.7 µM | NCI-H522 1.61 µM | TK-10 5.64 µM | MDA-MB-231 17.6 µM

c1ccc([P+](c2ccccc2)(c2ccccc2)c2ccc(-c3ccc([P+](c4ccccc4)(c4ccccc4)c4ccccc4)cc3)cc2)cc1
inactive: M14 44.9 µM | 786-0 25.9 µM | NCI-H460 27 µM | MCF7 36.8 µM | LOX IMVI 23.3 µM | IGROV-1 3.67 µM | SK-OV-3 43.2 µM | SN12C 26.5 µM | RPMI-8226 > 100 µM | SF-268 58.5 µM | SK-MEL-5 1.56 µM | A549 27.7 µM | COLO 205 16.4 µM | NCI-H23 21.9 µM | HT-29 20.7 µM | OVCAR-8 19.4 µM | SF-539 40 µM | U-251 7.94 µM | UACC-62 56.6 µM | SW-620 30.6 µM | RXF 393 48.1 µM | UACC-257 19.8 µM | MDA-N 29.3 µM | CCRF-CEM 82.4 µM | HCT-116 18.2 µM | MOLT-4 > 100 µM | NCI/ADR-RES > 100 µM | DU-145 63.8 µM | OVCAR-4 21.5 µM | BT-549 47.9 µM | T47D 41.4 µM | EKVX 37 µM | A498 3.97 µM | PC-3 35.5 µM | SK-MEL-28 49.5 µM | HCC 2998 47.4 µM | MDA-MB-435 26.7 µM | HOP-62 46.5 µM | SF-295 30.2 µM | Malme-3M 25.3 µM | K562 > 100 µM | ACHN 23.1 µM | KM12 75.5 µM | HL-60 > 100 µM | NCI-H226 30.8 µM | OVCAR-5 67.5 µM | SK-MEL-2 24.3 µM | Hs-578T > 100 µM | OVCAR-3 15.8 µM | CAKI-1 > 100 µM | SNB-19 50.7 µM | NCI-H522 18.3 µM | TK-10 34.8 µM | MDA-MB-231 32.8 µM
> 100 µM: HCT-15
